Patent US20120202840A1, “Use of Flubendazole and Vinca Alkaloids for Treatment of Hematological Diseases” (priority 2009, published 2012)
Where two headings read alike, the source gives them in different places.

Experiments:
OCI-AML2 cells [1] = system: OCI-AML2 cells
Procedure: Sub-lethally irradiated SCID mice were injected subcutaneously with OCI-AML2 cells (n=20; 10 per group). After implantation, mice were treated with 50 mg/kg flubendazole (A), 20 mg/kg flubendazole (B), or vehicle control by intraperitoneal injection daily. Tumor volume was measured over time. After 16 days (20 mg/kg dose) or 18 days (50 mg/kg dose), mice were sacrificed and tumors were excised, measured and weighted.
Sub-lethally irradiated SCID mice were injected subcutaneously with OCI-AML2 cells (n=40; 10 per group). […] After 16 (C) or 18 (D) days, mice were sacrificed and tumors were excised, measured and weighted. Data represent the mean±SD tumor weight.
(§1) Sub-lethally irradiated SCID mice were injected subcutaneously in the left flank with leukemia OCI-AML2 (2.0×10^6) or myeloma OPM2 (1.0×10^7) cells. Mice were then randomly assigned to receive flubendazole (in 0.9% NaCl and 0.01% tween-80) or vehicle control (0.9% NaCl and 0.01% tween-80) intraperitoneally. […] Tumor volumes (tumor length×width^2×0.5236) were monitored daily using calipers. At the end of the experiment (16-18 days), mice were sacrificed, tumors excised and tumor volume and weight measured. All animal studies were carried out according to the regulations of the Canadian Council on Animal Care and with the approval of the local ethics review board.

OPM2 cells = system: OPM2 cells
Procedure: (C) Sub-lethally irradiated SCID mice were injected subcutaneously with OPM2 cells (n=20; 10 per group). […] Tumor volume and body weight was measured over time. After 17 days, mice were sacrificed and tumors were excised, measured and weighted.
as §1

U937 leukemia cells = assay: Analysis of gene expression (Affymetrix arrays); type: cell-based; settings: 1.0 μM, 4 hours
Procedure: Briefly, total RNA was harvested from treated and untreated cells and hybridized to Affymetrix HG U133 Plus 2.0 gene expression oligonucleotide arrays (Affymetrix, Santa Clara, Calif., USA). Labeling and hybridization to arrays were performed by The Centre for Applied Genomics (Medical and Related Sciences Centre, Toronto, ON, Canada). Microarray data were analyzed using GeneSpring GX v10.0 (Agilent), and genes deregulated >4-fold after 4 hours flubendazole treatment were identified. Pathways and gene ontology analyses were carried out using Ingenuity Pathways Analysis (www.ingenuity.com) and the Database for Annotation, Visualization and Integrated Discovery (DAVID; http://david.abcc.ncifcrf.gov). Connectivity Map analysis, which compares the changes in gene expression signature following flubendazole treatment with gene expression signatures following treatment with other common pharmacological agents, was also performed (http://www.broadinstitute.org/cmap).

OCI-AML2 cells [2] = assay: Cell cycle analysis (PI, flow cytometry), OCI-AML2; type: cell-based; settings: OCI-AML2, 1.0 μM, 24 h
Procedure: OCI-AML2 cells (A) or PPC-1 cells (B) were incubated with 1.0 μM flubendazole or buffer control for 24 h. Cells were then stained with PI and the DNA content was measured by flow cytometry. A representative figure is shown.
Cell cycle analysis was performed as described by Mao et al^31. Briefly, OCI-AML2 or PPC-1 cells were harvested, washed with cold PBS and resuspended in PBS and cold absolute ethanol. Cells were then treated with 100 ng/mL of DNase-free RNase A (Invitrogen, Carlsbad, Calif.) at 37° C. for 30 min, washed with cold PBS, resuspended in PBS and incubated with 50 μg/mL of propidium iodine (PI) for 15 min at room temperature in the dark. DNA content was measured by flow cytometry (FACSCalibur, Becton Dickinson, Florida, USA) and analyzed with FlowJo software version 7.0 (TreeStar, Ashland, Oreg.).

KB-4.0-HTI = assay: MTS assay, KB-4.0-HTI (α-tubulin mutant); type: cell-based
Procedure: Next, whether microtubule inhibition was functionally important for flubendazole's cytotoxicity was determined.
(§2) Leukemia (U937, MDAY, CEM, CEM-VBL) and solid tumor cell lines (PPC-1, HeLa) were cultured in RPMI 1640 medium. The epidermoid carcinoma cell lines KB-3-1 and KB-4.0-HTI^23 were grown in Dulbecco's Modified Eagle Medium. The lung carcinoma cell lines A549 and A549.EpoB40 were grown in RPMI with the latter supplemented with 20% fetal calf serum (FCS), and 40 nM epothilone B.^24 Leukemia cell lines OCI-AML2, CEM, and NB4 and all the myeloma cell lines (OPM2, KMS11, JJN3 LP1, H929, L1, KMS12, KSM18 and OCI My5) were maintained in Iscove's Modified Dulbecco's Medium (IMDM). TEX cells were maintained in IMDM, 15% FCS, 1% penicillin-streptomycin, 2 mM L-glutamine, 20 ng/mL SCF, 2 ng/mL IL-3. Unless otherwise noted, all media were supplemented with 10% FCS, 100 units/mL of streptomycin and 100 μg/mL of penicillin (all from Hyclone, Logan, Utah). Cells were incubated in a humidified air atmosphere containing 5% CO2 at 37° C.
Cell growth and viability was measured using the 3-(4,5-dimethylthiazol-2-yl)-5-(3-carboxymethoxyphenyl)-2-(4-sulfophenyl)-2H-tetrazolium inner salt (MTS) reduction assay (Promega, Madison, Wis.) according to the manufacture's protocol and as previously described^25. […] Optical density (OD) was measured at 490 nm.

CEM-VBL = assay: MTS assay, CEM-VBL (Pgp over-expressing); type: cell-based
Procedure: Over-expression of P-glycoprotein (Pgp, MDR1) renders cells resistant to vinca alkaloid microtubule inhibitors.^43 Therefore, the effects of Pgp over-expression on flubendazole's cytotoxicity were tested. CEM-VBL cells over-express Pgp,^44 which was confirmed with a rhodamine dye exclusion assay. CEM wild type and CEM-VBL cells were treated with increasing concentrations of flubendazole or vinblastine and cell viability measured by the MTS assay (Table 1). […] In contrast, CEM-VBL cells over-expressing Pgp were resistant to vinblastine at concentrations greater than 5.0 μM (Table 1).
as §2
Cell growth and viability was measured using the 3-(4,5-dimethylthiazol-2-yl)-5-(3-carboxymethoxyphenyl)-2-(4-sulfophenyl)-2H-tetrazolium inner salt (MTS) reduction assay (Promega, Madison, Wis.) according to the manufacture's protocol and as previously described^25. Cells were seeded in 96 well plates and treated with drug for 72 h. Optical density (OD) was measured at 490 nm.

[3] = sheep, cited from earlier work
[4] = OCI-AML2 xenograft, 20 or 50 mg/kg daily intraperitoneally, vs vehicle, p<0.0001
[5] = OPM2 xenograft, 50 mg/kg daily intraperitoneally for 17 days, vs vehicle, p<0.05
[6] = single dose of 5 mg/kg intravenously

SMILES: COC(=O)Nc1nc2ccc(C(=O)c3ccc(F)cc3)cc2[nH]1 [flubendazole]
- tumor growth (OCI-AML2 cells [1]; [4]): significantly delayed tumor growth
- tumor weights (OCI-AML2 cells [1]; [4]): reduced tumor weights
- weight loss, behavioral changes or gross organ toxicity (OCI-AML2 cells [1]; mouse, in vivo): no evidence of weight loss, behavioral changes or gross organ toxicity
- tumor growth (OPM2 cells; [5]): significantly delayed tumor growth
- tumor weights (OPM2 cells; [5]): reduced tumor weights
- weight loss, behavioral changes or gross organ toxicity (OPM2 cells; mouse, in vivo): no evidence of weight loss, behavioral changes or gross organ toxicity
- number of genes deregulated >4 fold (U937 leukemia cells): 196
- cell cycle (OCI-AML2 cells [2]): arrested cells in the G2 phase
- IC50 (KB-4.0-HTI; KB-4.0-HTI, MTS assay, 3 replicates): 12.5 ± 1.8 µM
- IC50 higher in KB-4.0-HTI than in KB-3-1 wild type cells (KB-4.0-HTI; ratio of IC50 values of Table 1): 7 fold
- IC50 (CEM-VBL; CEM-VBL, 3 replicates): 2.7 ± 1.2 µM
- sensitivity of CEM-VBL cells compared to wild type controls (CEM-VBL; Pgp over-expression): fully sensitive
- estimated half life ([3]; after oral administration): 6.5 h
- fraction of flubendazole absorbed ([3]; oral): 18%
- area under the curve (AUC) ([3]; single dose of 5 mg/kg intravenously, over 36 hours): 22 µM·h
- area under the curve (AUC) [3, 6]: 6530 ng·h/mL
- toxicity [3, 6]: no toxicity was observed
